The source made the active and inactive calls.
What was measured:
[1] = NIH-3T3 fibroblast cytotoxicity, dose response, cytotoxicity control, cell-based, fluorescence, Alamar Blue, secondary assay (AID 2327); format: functional;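 also: NIH-3T3 mouse fibroblasts cultured with fluconazole at 8 µg/mL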
[2] = fluconazole-exposed Candida albicans growth modulators – fluorescence, retest, confirmation (AID 2467); format: functional, cell-based
[3] = target: T1, Mannose-6-phosphate isomerase (Homo sapiens, UniProt P34949); assay: MPI inhibition at elevated mannose 6-phosphate – biochemical, fluorescence intensity, high mannose 6-phosphate, primary screen (AID 1220)
T1 sequence (P34949 whole entry): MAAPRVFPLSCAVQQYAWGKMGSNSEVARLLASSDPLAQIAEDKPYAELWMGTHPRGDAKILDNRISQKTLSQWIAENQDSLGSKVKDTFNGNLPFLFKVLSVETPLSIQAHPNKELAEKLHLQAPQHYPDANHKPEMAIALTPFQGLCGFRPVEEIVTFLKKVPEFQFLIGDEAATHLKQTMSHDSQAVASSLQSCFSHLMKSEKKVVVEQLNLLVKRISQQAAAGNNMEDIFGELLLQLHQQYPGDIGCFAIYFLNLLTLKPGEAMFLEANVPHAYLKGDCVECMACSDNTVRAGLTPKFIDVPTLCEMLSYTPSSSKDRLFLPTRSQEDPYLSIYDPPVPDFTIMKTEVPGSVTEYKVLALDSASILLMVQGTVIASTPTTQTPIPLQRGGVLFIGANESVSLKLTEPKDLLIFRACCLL

[4] = target: Glyceraldehyde-3-phosphate dehydrogenase (Homo sapiens, UniProt P04406)
Chain of Glyceraldehyde-3-phosphate dehydrogenase (P04406 whole entry): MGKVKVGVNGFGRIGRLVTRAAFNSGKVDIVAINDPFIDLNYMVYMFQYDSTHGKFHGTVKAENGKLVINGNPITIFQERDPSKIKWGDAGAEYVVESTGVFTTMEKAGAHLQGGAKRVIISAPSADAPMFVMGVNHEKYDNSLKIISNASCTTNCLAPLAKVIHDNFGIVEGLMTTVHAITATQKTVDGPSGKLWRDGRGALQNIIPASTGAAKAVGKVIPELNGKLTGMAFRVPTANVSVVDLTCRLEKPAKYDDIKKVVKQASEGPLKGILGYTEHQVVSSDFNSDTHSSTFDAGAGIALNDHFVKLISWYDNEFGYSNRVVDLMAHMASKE

[5] = viability of uninfected HEp-2 cells – cell-based, HTS, cytotoxicity control for RSV inhibitor project, dose response (AID 2410); format: functional; settings: human respiratory syncytial virus
[6] = cells
[7] = target: T2, Heat shock factor protein 1 (Mus musculus, UniProt P38532); assay: enhancement of HSF1-driven luciferase signal – cell-based, NIH3T3, luminescence, dose retest, confirmation (AID 435004); format: functional;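 also: stress induced by proteasome inhibitor MG132 added 30 min after compound; luciferase reporter driven by HSF1 response element in NIH3T3 cells; actives raise luminescence as potentiators of the MG132 stress response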
T2 sequence (P38532 whole entry): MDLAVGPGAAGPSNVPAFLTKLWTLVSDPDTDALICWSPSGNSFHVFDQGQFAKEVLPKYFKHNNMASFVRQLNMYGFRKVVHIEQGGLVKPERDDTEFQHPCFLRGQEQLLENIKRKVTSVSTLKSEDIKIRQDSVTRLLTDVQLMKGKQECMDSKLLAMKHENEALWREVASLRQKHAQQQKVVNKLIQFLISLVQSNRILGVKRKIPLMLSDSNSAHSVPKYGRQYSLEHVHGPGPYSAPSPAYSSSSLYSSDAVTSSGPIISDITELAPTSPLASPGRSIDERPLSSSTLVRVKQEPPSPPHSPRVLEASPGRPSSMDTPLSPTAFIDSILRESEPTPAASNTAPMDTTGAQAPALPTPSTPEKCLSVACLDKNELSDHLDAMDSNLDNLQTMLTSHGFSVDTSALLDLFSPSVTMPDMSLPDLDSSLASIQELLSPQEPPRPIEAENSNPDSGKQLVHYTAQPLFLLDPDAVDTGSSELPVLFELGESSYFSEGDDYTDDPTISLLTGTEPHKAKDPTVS

[8] = target: T3, Short transient receptor potential channel 4 (Mus musculus, UniProt Q9QUQ5); assay: block of DAMGO-driven TRPC4 calcium entry – cell-based, HEK293 TRPC4/mu-opioid, Fluo-4 calcium, dose response (AID 434942); format: functional;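 also: potency of inhibitors blocking the TRPC4 calcium response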
T3 sequence (Q9QUQ5 whole entry): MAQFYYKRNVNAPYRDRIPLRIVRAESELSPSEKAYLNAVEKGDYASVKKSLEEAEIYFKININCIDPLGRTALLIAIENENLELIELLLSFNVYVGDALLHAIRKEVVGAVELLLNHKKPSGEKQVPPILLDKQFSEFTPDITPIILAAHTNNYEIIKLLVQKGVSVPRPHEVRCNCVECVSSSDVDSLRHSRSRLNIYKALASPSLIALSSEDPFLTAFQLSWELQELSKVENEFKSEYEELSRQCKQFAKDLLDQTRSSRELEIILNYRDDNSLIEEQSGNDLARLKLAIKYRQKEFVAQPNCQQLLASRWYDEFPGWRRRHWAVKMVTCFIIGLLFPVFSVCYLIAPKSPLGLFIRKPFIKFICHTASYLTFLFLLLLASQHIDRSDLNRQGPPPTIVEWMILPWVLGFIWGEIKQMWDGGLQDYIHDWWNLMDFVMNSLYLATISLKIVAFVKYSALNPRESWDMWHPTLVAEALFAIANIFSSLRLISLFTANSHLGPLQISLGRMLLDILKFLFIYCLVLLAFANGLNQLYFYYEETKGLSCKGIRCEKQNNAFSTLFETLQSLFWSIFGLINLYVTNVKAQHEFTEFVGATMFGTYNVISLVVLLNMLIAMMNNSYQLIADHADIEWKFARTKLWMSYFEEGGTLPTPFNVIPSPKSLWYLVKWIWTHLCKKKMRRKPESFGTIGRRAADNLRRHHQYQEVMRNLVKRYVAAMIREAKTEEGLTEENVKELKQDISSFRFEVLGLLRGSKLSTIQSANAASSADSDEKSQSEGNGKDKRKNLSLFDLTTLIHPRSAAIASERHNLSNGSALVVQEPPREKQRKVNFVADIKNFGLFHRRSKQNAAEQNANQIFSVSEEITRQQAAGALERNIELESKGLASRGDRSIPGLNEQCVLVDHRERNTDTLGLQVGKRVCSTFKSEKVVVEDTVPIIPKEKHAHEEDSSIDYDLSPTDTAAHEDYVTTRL

[9] = target: T3, Short transient receptor potential channel 4; assay: calcium entry via TRPC4 opening agents – cell-based, HEK293 TRPC4/mu-opioid, Fluo-4 calcium, dose response (AID 434937); format: functional
[10] = target: T4, Corticotropin-releasing factor receptor 2/Corticotropin-releasing factor-binding protein (Homo sapiens, UniProt P24387+Q13324); assay: activators of CRF receptor 2 with binding protein – uHTS hits, confirmation (AID 602473); format: functional; settings: read-out: EC50_Mean
T4 sequence (Q13324 whole entry): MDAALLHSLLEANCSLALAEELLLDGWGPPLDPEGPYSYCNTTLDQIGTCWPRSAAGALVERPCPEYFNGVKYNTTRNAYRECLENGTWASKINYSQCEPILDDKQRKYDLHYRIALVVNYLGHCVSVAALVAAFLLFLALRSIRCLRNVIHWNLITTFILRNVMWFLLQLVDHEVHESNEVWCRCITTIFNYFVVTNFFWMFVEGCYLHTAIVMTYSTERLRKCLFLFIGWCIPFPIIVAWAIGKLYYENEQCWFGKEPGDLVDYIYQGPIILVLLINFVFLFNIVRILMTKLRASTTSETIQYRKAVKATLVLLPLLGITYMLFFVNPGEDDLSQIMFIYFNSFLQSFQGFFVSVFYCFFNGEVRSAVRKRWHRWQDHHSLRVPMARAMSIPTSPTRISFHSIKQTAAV
T4 sequence (P24387 whole entry): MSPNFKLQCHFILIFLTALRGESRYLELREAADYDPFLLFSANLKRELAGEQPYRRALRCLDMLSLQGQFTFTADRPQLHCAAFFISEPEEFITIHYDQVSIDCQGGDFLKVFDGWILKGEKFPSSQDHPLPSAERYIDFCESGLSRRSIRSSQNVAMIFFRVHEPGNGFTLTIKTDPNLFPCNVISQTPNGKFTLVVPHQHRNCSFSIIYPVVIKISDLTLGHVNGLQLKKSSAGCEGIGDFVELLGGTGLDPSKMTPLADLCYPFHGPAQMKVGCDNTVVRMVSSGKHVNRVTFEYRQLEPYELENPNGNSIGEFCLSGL

[11] = target: T5, DNA repair protein RAD52 homolog (Homo sapiens, UniProt P43351); format: functional, biochemical
T5 sequence (P43351 whole entry): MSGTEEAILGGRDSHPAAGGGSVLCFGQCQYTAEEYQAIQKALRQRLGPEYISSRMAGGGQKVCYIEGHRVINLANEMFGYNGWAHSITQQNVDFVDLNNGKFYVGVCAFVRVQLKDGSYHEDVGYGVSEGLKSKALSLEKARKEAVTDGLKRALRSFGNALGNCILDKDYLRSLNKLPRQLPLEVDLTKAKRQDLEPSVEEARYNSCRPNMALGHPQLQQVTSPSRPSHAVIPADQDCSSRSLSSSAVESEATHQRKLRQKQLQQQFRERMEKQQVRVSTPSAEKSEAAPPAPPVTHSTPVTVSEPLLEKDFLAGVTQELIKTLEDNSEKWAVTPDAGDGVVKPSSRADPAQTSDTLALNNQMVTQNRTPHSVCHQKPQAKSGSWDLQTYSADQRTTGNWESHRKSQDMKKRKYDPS

[12] = microbe, parasite or virus in culture; format: functional; settings: Mycobacterium tuberculosis
[13] = HIV-1 AD8 envelope cell-cell fusion blockers – cherry-pick, dose response (AID 652062); format: functional, cell-based;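 also: luciferase signal from cell-cell fusion driven by HIV-1 clade B AD8 Env; potency is for inhibitors of fusion seen as a drop in luminescence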
[14] = target: Paired box protein Pax-8 (Homo sapiens, UniProt Q06710); assay: PAX8 transcriptional activity inhibition in RMG-I – RMG-I cells, luciferase, cherry-pick, dose response (AID 687027); format: functional, cell-based;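 also: luciferase reporter driven by Pax8 target thyroperoxidase promoter measured by SteadyGlo luminescence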
Chain of Paired box protein Pax-8 (Q06710 whole entry): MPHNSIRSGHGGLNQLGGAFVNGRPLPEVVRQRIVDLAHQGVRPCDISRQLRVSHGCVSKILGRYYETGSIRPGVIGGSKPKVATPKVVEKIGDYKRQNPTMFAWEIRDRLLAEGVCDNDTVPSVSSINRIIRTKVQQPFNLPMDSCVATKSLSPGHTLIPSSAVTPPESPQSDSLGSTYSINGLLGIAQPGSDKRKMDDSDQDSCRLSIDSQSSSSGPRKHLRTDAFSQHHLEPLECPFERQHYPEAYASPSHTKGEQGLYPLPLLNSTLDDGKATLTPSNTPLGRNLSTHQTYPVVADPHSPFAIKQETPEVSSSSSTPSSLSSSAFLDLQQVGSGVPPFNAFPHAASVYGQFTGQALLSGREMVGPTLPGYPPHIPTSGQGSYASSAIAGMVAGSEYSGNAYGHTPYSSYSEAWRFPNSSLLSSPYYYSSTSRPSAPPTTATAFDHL

N#CC1CC(c2ccccc2)=NN1c1ccccc1[N+](=O)[O-] (configuration not stated)
EC50 [1]: > 160 µM (inactive)
EC50 [2]: > 38 µM (not active)

COc1ccc(N(C)C(=O)Nc2ccc3nsnc3c2)cc1
IC50 [3]: > 50 µM (not active)

O=C1C(Cl)=C(N2CCN(c3ncccn3)CC2)C(=O)N1c1ccc(C(F)(F)F)cc1
IC50 [4]: > 50 µM (inconclusive)

O=C1C(Cl)=C(N2CCN(c3ccccc3)CC2)C(=O)N1c1cccc(C(F)(F)F)c1
IC50 [4]: > 50 µM (inconclusive)

CSc1ncc(Cl)c(C(=O)C(C#N)c2nc(O)c3cc(C)cc(C)c3n2)n1 (configuration not stated)
EC50 [1]: 18.3 µM (active)
EC50 [2]: 2.48 µM (active)

Cc1cc(NC(=O)c2cccc(Oc3ccccc3)c2)[nH]n1
EC50 [1]: > 150 µM (inactive)
EC50 [2]: 1.87 µM (active)

CCC(C)C1=CC(=Nc2c(C)n(C)n(-c3ccccc3)c2=O)C=C(C(C)CC)C1=O (configuration not stated)
IC50 [3]: > 50 µM (not active)

Cc1cc(C=C2C(=O)N(C)C(=S)N(C)C2=O)c(C)n1-c1cccnc1
IC50 [3]: > 50 µM (not active)

Cc1ccc2oc(C(=O)Nc3ccc(S(=O)(=O)Nc4onc(C)c4C)cc3)c(C)c2c1
CC50 [5]: 25.9 µM (active)
IC50 [6]: 23.7 µM (active)

Cc1cccc(N2C(=O)C(Cl)=C(N3CCN(c4ccccc4)CC3)C2=O)c1
IC50 [4]: > 50 µM (inconclusive)

COc1ccc(OC)c(NC(=O)c2c3c(nc4ccccc24)CCC3)c1
EC50 [1]: > 150 µM (inactive)
EC50 [2]: 2.17 µM (active)

Oc1cc(-c2ccccc2)c2ccccc2c1
IC50 [3]: 14.4 µM (active)
EC50 [7]: 40.1 µM (active)

CC(=O)c1ccc(N2CCN(Cc3nc4ccccc4[nH]3)CC2)cc1
CC50 [5]: > 50 µM (active)
IC50 [6]: 10.8 µM (active)

NS(=O)(=O)c1ccc(/N=C/C2=C(O)c3ccccc3C2=O)cc1
IC50 [4]: > 100 µM (not active)

CC1CC(C)(C)N(C(=O)CN2C(=O)c3ccccc3C2=O)c2ccccc21 (configuration not stated)
EC50 [8]: 4.22 µM (active)
EC50 [9]: 5.96 µM (active)
EC50 [10]: 6.44 µM (active)

Cc1cc(C)c2nc3nc(C)c(C)cc3c(N)c2c1
AC50 [11]: 1.56 µM (active)

CCc1ccccc1Nc1nc(N)nc(COC(=O)c2cccn2C)n1
CC50 [5]: 17.3 µM (active)
IC50 [6]: 13 µM (active)

Cc1ccc(C(=O)N/C(=C\c2ccc(C(C)C)cc2)C(=O)NCCCN2CCOCC2)cc1
IC50 [6]: 14.6 µM (active)

Cc1ccc(C(=O)N/C(=C/c2ccc(-c3cc(C(F)(F)F)ccc3Cl)o2)C(=O)NCc2cccnc2)cc1
EC50 [1]: 21.4 µM (active)
EC50 [2]: > 38 µM (not active)
CC50 [12]: > 40 µM (active)

CC1(C)CC(=O)c2cc(C(=O)NCc3ccco3)c(=O)n(-c3ccc(Cl)cc3)c2C1
EC50 [9]: 6.68 µM (active)

Cc1ccc(S(=O)(=O)Nc2cccc(C(=O)NCC(c3ccccc3)N(C)C)c2)cc1F (configuration not stated)
EC50 [8]: 0.267 µM (active)
EC50 [9]: 5.31 µM (active)

CC1CCCN(C(=O)c2ccc(S(=O)(=O)N3CCC(c4nc5ccccc5s4)CC3)cc2)C1 (configuration not stated)
AC50 [13]: 5.85 µM (active)

COc1ccc(S(=O)(=O)N(C)C[C@H]2Oc3ccc(NC(=O)Nc4ccc(C(F)(F)F)cc4)cc3CC(=O)N([C@H](C)CO)C[C@@H]2C)cc1
AC50 [14]: 11.9 µM (active)

COc1ccc(NC(=O)Nc2ccc3c(c2)CC(=O)N([C@@H](C)CO)C[C@@H](C)[C@@H](CN(C)Cc2ccc(Oc4ccccc4)cc2)O3)cc1
AC50 [14]: 25.3 µM (active)

C[C@@H]1CCCCO[C@@H](CN(C)C(=O)Nc2ccccc2)[C@H](C)CN([C@H](C)CO)C(=O)c2cc(NC(=O)Nc3ccc(C(F)(F)F)cc3)ccc2O1
AC50 [14]: 3.07 µM (active)

CC(Nc1cccc2ccccc12)C(=O)N/N=C/c1ccc([N+](=O)[O-])cc1 (configuration not stated)
CC50 [5]: 21.8 µM (active)
IC50 [6]: 22.1 µM (active)

O=C(NCCO)c1cc(-c2cc(F)c(F)cc2F)n[nH]1
IC50 [4]: > 10 µM (inconclusive)

COc1ccc(F)cc1S(=O)(=O)Nc1cccnc1
IC50 [4]: > 100 µM (not active)

Source: ChEMBL document CHEMBL1201862, “PubChem BioAssay data set” (2004)
